Assay [1] concerns CHO cells. Description: Inhibiting endosome acidification, CHO cells (chloroquine). Format: cell-based, Chinese hamster. As to conditions: chloroquine 5 μM, Compound 3 (5 μM) and Compound 2 (8 μM), 24 h. On the procedure: Exponentially growing CHO cells were cultivated on round collagen-coated coverslips (22 mm, BD BioCoat) in a six-well plate (1.2×10^5 cells/well, 2 mL). After 24 h, the media was replaced with fresh media containing chloroquine (final concentration=5 μM) in DMSO (final [DMSO]=1%) and cells were incubated at 37° C. for 1 h. The media was replaced with fresh media containing Compound 3 (5 μM) and Compound 2 (concentration=8 μM) in DMSO (final [DMSO]=1%) with or without chloroquine […] (final concentration=5 μM) in DMSO (final [DMSO]=1%). The cells were incubated at 37° C. for 24 h. The cells were washed with PBS (2×2 mL) prior to analysis by confocal microscopy.

In assay [2] the test system is Jurkat lymphocytes. Nature of the assay: Release of fluorescent cargo from early/recycling endosomes, confocal microscopy, Jurkat lymphocytes. The format is cell-based, human. To be noted: for release of green fluorescence of Compound 3 from early/recycling endosomes by the endosome disruptor: Compound 3 (2.5 μM) and disruptor (2 μM) for 12 h; for release of the fluorophore of the cargo compound when combined with Compound 1: Compound 3 or Compound 4 (2.5 μM), Compound 1 (2 μM), 12 h. On the procedure: (§1) FIG. 4A-4J show confocal fluorescence and DIC micrographs of living cells treated with fluorescent probes. FIGS. 4A-4F show CHO cells were treated with Compound 3 or Compound 4 (5 μM) and Compounds 1, 2, or 5 (8 μM) for 24 h. In FIG. 4F, [chloroquine]=5 μM. In FIGS. 4G-4J, Jurkat lymphocytes were treated with Compound 3 or Compound 4 (2.5 μM) and Compound 1 or Compound 5 (2 μM) for 12 h.
Jurkat cells were treated with green fluorescent Compound 3 (2.5 μM) and red fluorescent Compound 2 (2 μM) for 12 h at 37° C. In FIG. 9B, bafilomycin A1 (1 μM), a vacuolar H^+ ATPase inhibitor that blocks acidification of endosomes, was added. FIG. 9A is without bafilomyin. Cells were washed with media and imaged by DIC and confocal laser scanning microscopy.
(§2) A Zeiss LSM 5 Pascal confocal laser-scanning microscope fitted with a Plan Apochromat objective (63×) was employed. Fluorescein and Alexa Fluor-488 were excited with a 488 nm Argon ion laser (25 mW, 1% laser power) and emitted photons were collected through 505 nm LP filter. Excitation of 6-Hex, Texas Red, and DiI employed a 543 nm HeNe laser and emitted photons were collected through a 560 nm LP filter.

Assay [3] deals with CHO cells. Description: Dose dependence of endosomal escape quantified by flow cytometry, CHO cells. The format is cell-based, Chinese hamster. To be noted: Compound 3 (5 μM) with increased amounts of Compound 1, or Compound 5 at 8 micromolar, 24 h, 37° C. On the procedure: (§3) Cellular fluorescence was analyzed by flow cytometry.
(§4) Analyses were performed with a Beckman-Coulter XL-MCL bench-top flow cytometer. Forward-scatter (FS) and side-scatter (SSC) dot plots afforded cellular physical properties of size and granularity that allowed gating of live cells. After gating, 10,000 cells were counted. In studies of endosomal release of fluorescein derivative Compound 6 mediated by Compound 1, the fluorophore was excited at 488 nm with a 15 mW air-cooled argon-ion laser, the emission was split with a 550 nm dichroic and filtered through a 510 nm long pass filter and 530/30-nm band pass filter using the XL-MCL cytometer. The PMT voltage for this instrument was set to 501 for Jurkat cells and 524 for CHO cells.
On the technique in general: A flow cytometer gives signals particle by particle.

Assay [4] relates to Jurkat lymphocytes. Description: Dose dependence of endosomal escape quantified by flow cytometry, Jurkat lymphocytes. Format: cell-based, human. To be noted: Compound 3 (2.5 μM) with increased amounts of Compound 1, or Compound 5 at 8 micromolar, 12 h, 37° C. As to the method:
as §3, §4

For assay [5], the system named is CHO cells. Nature of the assay: Release of fluorescent cargo from early/recycling endosomes, confocal microscopy, CHO cells. The format is cell-based, Chinese hamster. As to conditions: for release of green fluorescence of Compound 3 from early/recycling endosomes by the endosome disruptor: Compound 3 (5 μM) and Compounds 1, 2, or 5 (8 μM) for 24 h; for release of the fluorophore of the cargo compound when combined with Compound 1 or Compound 2: Compound 3 or Compound 4 (5 μM), disruptor 8 μM, 24 h. On the procedure:
as §1, §2

The subject of assay [6] is Jurkat lymphocytes. Description: Inhibiting endosome acidification, Jurkat cells (bafilomycin A1). The format is cell-based, human. To be noted: bafilomycin A1 1 μM, Compound 3 (2.5 μM) and Compound 2 (2 μM), 12 h, 37° C. As to the method:
Jurkat lymphocytes (5×10^5) in media (500 μL) were pretreated with bafilomycin A1 (final concentration=1 μM) in DMSO (final [DMSO]=2%) for 1 h. […] After incubation at 37° C. for 12 h, the cells were washed with fresh media (500 μL) and resuspended in fresh media (125 μL) for analysis by confocal microscopy.

“Also recorded” adds a separate entry of the source. Square brackets hold non-standard residues; d marks the D form. Peptide text beside a SMILES is read from it. * marks the point of attachment. Pentanoyl(5-NH-cholesteryl) = CC(C)CCC[C@@H](C)[C@H]1CC[C@H]2[C@@H]3CC=C4C[C@@H](NCCCCC(=O)*)CC[C@]4(C)[C@H]3CC[C@]12C; X1 = O=C(O)c1c(Cl)cc(C(=O)*)c(Cl)c1-c1c2cc(Cl)c(=O)c(Cl)c-2oc2c(Cl)c(O)c(Cl)cc12; Ahx = NCCCCCC(=O)O

Regarding `CCN(CC)CCCC(C)Nc1ccnc2cc(Cl)ccc12` (stereo not drawn) [chloroquine], the “effect of raising endosomal pH on release of the fluorophore” value in assay [1] is “blocked release of the fluorophore”.
Consider “Ac-SSAWWSYWPPVA-NH2 [Compound 5, N-Acetyl-L-seryl-L-seryl-L-alanyl-L-tryptophyl-L-tryptophyl-L-seryl-L-tyrosyl-L-tryptophyl-L-prolyl-L-prolyl-L-valyl-L-alaninamide, reference compound]”, for which the “release of green fluorescence of Compound 3 from early/recycling endosomes by the endosome disruptor” value in assay [2] and in assay [5] was “little effect” throughout. The “cellular fluorescence (endosomal escape) by flow cytometry” value in assay [3] and in assay [4] was “did not increase fluorescence” throughout.
Turning to `CC(C)CCC[C@@H](C)[C@H]1CC[C@H]2[C@@H]3CC=C4C[C@@H](NCCCNC(=O)[C@H](CCC(=O)O)NC(=O)[C@H](CCC(=O)O)NC(=O)CCNC(=O)CCNC(=O)c5ccc(-c6c7ccc(=O)cc-7oc7cc(O)ccc67)c(C(=O)O)c5)CC[C@]4(C)[C@H]3CC[C@]12C` [Compound 4, (11S,14S)-11-(2-Carboxylatoethyl)-1-[3-carboxylato-4-(6-oxido-3-oxo-3H-xanthen-9-yl)phenyl]-14-[({3-(3β-cholest-5-en-3-ylammonio)propyl}amino)carbonyl]-1,5,9,12-tetraoxo-2,6,10,13-tetraazaheptadecan-17-oate], in assay [2], the “release of the fluorophore of the cargo compound when combined with Compound 1” value is “blocked release of the fluorophore”. The “release of the fluorophore of the cargo compound when combined with Compound 1 or Compound 2” value in assay [5] is “blocked release of the fluorophore”.
On to `CO/C1=C\C(C)=C\[C@@H](C)[C@@H](O)[C@@H](C)C/C(C)=C/C=C/[C@H](OC)[C@@H]([C@@H](C)[C@@H](O)[C@H](C)[C@@]2(O)C[C@@H](O)[C@H](C)[C@@H](C(C)C)O2)OC1=O` [bafilomycin A1], for which the “effect of raising endosomal pH on release of the fluorophore (endosomal escape)” value in assay [6] is reported as “blocked release of the fluorophore; also recorded: retention in endosomes”.
With `CC(C)CCC[C@@H](C)[C@H]1CC[C@H]2[C@@H]3CC=C4C[C@@H](NCCCNC(=O)[C@H](CCC(=O)O)NC(=O)[C@H](CCC(=O)O)NC(=O)CCSSCCNC(=O)c5ccc(-c6c7ccc(=O)cc-7oc7cc(O)ccc67)c(C(=O)O)c5)CC[C@]4(C)[C@H]3CC[C@]12C` [Compound 3, (11S,14S)-11-(2-Carboxylatoethyl)-1-[3-carboxylato-4-(6-oxido-3-oxo-3H-xanthen-9-yl)phenyl]-14-[({3-(3β-cholest-5-en-3-ylammonio)propyl}amino)carbonyl]-1,9,12-trioxo-5,6-dithia-2,10,13-triazaheptadecan-17-oate], the “release of the fluorophore of the cargo compound when combined with Compound 1” value in assay [2] is “released from entrapment in early/recycling endosomes”. Also, in assay [5], the “release of the fluorophore of the cargo compound when combined with Compound 1 or Compound 2” value is recorded as “released from entrapment in early/recycling endosomes”.
Regarding `CC(C)CCC[C@@H](C)[C@H]1CC[C@H]2[C@@H]3CC=C4C[C@@H](NCCCCC(=O)N[C@@H](CCC(=O)O)C(=O)N[C@@H](CCCCNC(=O)c5cc(Cl)c(C(=O)O)c(-c6c7cc(Cl)c(=O)c(Cl)c-7oc7c(Cl)c(O)c(Cl)cc67)c5Cl)C(=O)NCCCCCC(=O)NCCCCCC(=O)N[C@@H](CO)C(=O)N[C@@H](CO)C(=O)N[C@@H](C)C(=O)N[C@@H](Cc5c[nH]c6ccccc56)C(=O)N[C@@H](Cc5c[nH]c6ccccc56)C(=O)N[C@@H](CO)C(=O)N[C@@H](Cc5ccc(O)cc5)C(=O)N[C@@H](Cc5c[nH]c6ccccc56)C(=O)N5CCC[C@H]5C(=O)N5CCC[C@H]5C(=O)N[C@H](C(=O)N[C@@H](C)C(N)=O)C(C)C)CC[C@]4(C)[C@H]3CC[C@]12C` [Compound 2, N-(6-{[6-({N-{5-(3β-Cholest-5-en-3-ylammonio)pentanoyl}-5-oxidanidyl-5-oxidanylidene-L-norvalyl-N^6-[4-carboxy-2,5-dichloro-3-(2,4,5,7-tetrachloro-6-hydroxy-3-oxo-3H-xanthen-9-yl)benzoyl]-L-lysyl}amino)hexanoyl]amino}hexanoyl)-L-seryl-L-seryl-L-alanyl-L-tryptophyl-L-tryptophyl-L-seryl-L-tyrosyl-L-tryptophyl-L-prolyl-L-prolyl-L-valyl-L-alaninamide] ({Pentanoyl(5-NH-cholesteryl)}-EK(X1)[Ahx][Ahx]SSAWWSYWPPVA-NH2), the “release of green fluorescence of Compound 3 from early/recycling endosomes by the endosome disruptor” value in assay [2] is “endosomal escape”; in assay [5], “fluorescence was observed in the cytosol and nucleus”.

These data come from US8889631B2, “Disruptors of early/recycling endosomes” (The University of Kansas, priority 2008, dated 2014).
